In brackets after ≈: the same amount, converted by molar mass.
Legend:
Format in all cases: functional
Details in all cases: time 16-20 hrs
Staphylococcus aureus [1] = experiment: Antibacterial activity against Staphylococcus aureus ATCC 25923 incubated for 16 to 20 hrs by broth microdilution method
Cronobacter sakazakii = experiment: Antibacterial activity against Cronobacter sakazakii ATCC 29544 incubated for 16 to 20 hrs by broth microdilution method
[2] = test system: Streptococcus dysgalactiae; experiment: Antibacterial activity against Streptococcus dysgalactiae incubated for 16 to 20 hrs by broth microdilution method
Klebsiella pneumoniae = experiment: Antibacterial activity against Klebsiella pneumoniae ATCC 13883 incubated for 16 to 20 hrs by broth microdilution method
Escherichia coli [3] = experiment: Antibacterial activity against Escherichia coli incubated for 16 to 20 hrs by broth microdilution method
Pseudomonas aeruginosa = experiment: Antibacterial activity against Pseudomonas aeruginosa LTP-3 incubated for 16 to 20 hrs by broth microdilution method
Enterococcus faecium = experiment: Antibacterial activity against Enterococcus faecium incubated for 16 to 20 hrs by broth microdilution method
Escherichia coli [4] = experiment: Antibacterial activity against Escherichia coli ATCC 25922 incubated for 16 to 20 hrs by broth microdilution method
Staphylococcus aureus [5] = experiment: Antibacterial activity against Staphylococcus aureus incubated for 16 to 20 hrs by broth microdilution method
[6] = test system: Staphylococcus chromogenes; experiment: Antibacterial activity against Staphylococcus chromogenes incubated for 16 to 20 hrs by broth microdilution method

SMILES | MIC (Staphylococcus aureus [1]) [µg/mL] | MIC (Cronobacter sakazakii) [µg/mL] | MIC [2] [µg/mL] | MIC (Klebsiella pneumoniae) [µg/mL] | MIC (Escherichia coli [3]) [µg/mL] | MIC (Pseudomonas aeruginosa) [µg/mL] | MIC (Enterococcus faecium) [µg/mL] | MIC (Escherichia coli [4]) [µg/mL] | MIC (Staphylococcus aureus [5]) [µg/mL] | MIC [6] [µg/mL]
CC[C@H]1OC(=O)C[C@@H](O)[C@H](C)[C@@H](O[C@@H]2O[C@H](C)[C@@H](O)[C@H](N(C)C)[C@H]2O)[C@@H](CCN(Cc2ccccc2)Cc2cn(-c3cnc4ccccc4c3)nn2)C[C@@H](C)C(=O)/C=C/C(C)=C/[C@@H]1CO | 0.25 (≈ 0.279 µM) | 32 (≈ 35.7 µM) | 0.5 (≈ 0.557 µM) | 8 (≈ 8.92 µM) | 8 (≈ 8.92 µM) | 4 (≈ 4.46 µM) | 4 (≈ 4.46 µM) | 8 (≈ 8.92 µM) | 0.5 (≈ 0.557 µM) | 4 (≈ 4.46 µM)
NC[C@H]1O[C@H](O[C@H]2[C@H](O)[C@@H](O[C@H]3O[C@H](CO)[C@@H](O)[C@H](N)[C@H]3O)[C@H](N)C[C@@H]2N)[C@H](N)C[C@@H]1O [TOBRAMYCIN] | 8 (≈ 17.1 µM) | 16 (≈ 34.2 µM) | 16 (≈ 34.2 µM) | 8 (≈ 17.1 µM) | > 32 | 32 (≈ 68.4 µM) | 32 (≈ 68.4 µM) | 8 (≈ 17.1 µM) | 1 (≈ 2.14 µM) | 2 (≈ 4.28 µM)
CC[C@H]1OC(=O)C[C@@H](O)[C@H](C)[C@@H](O[C@@H]2O[C@H](C)[C@@H](O)[C@H](N(C)C)[C@H]2O)[C@@H](CCN(C)Cc2cn(-c3cnc4ccccc4c3)nn2)C[C@@H](C)C(=O)/C=C/C(C)=C/[C@@H]1CN1CCCCCCC1 | 0.125 (≈ 0.136 µM) | 4 (≈ 4.37 µM) | 0.5 (≈ 0.546 µM) | 1 (≈ 1.09 µM) | 2 (≈ 2.18 µM) | 1 (≈ 1.09 µM) | 2 (≈ 2.18 µM) | 2 (≈ 2.18 µM) | 0.5 (≈ 0.546 µM) | 1 (≈ 1.09 µM)
CN[C@H](CC(C)C)C(=O)N[C@H]1C(=O)N[C@@H](CC(N)=O)C(=O)N[C@H]2C(=O)N[C@H]3C(=O)N[C@H](C(=O)N[C@H](C(=O)O)c4cc(O)cc(O)c4-c4cc3ccc4O)[C@H](O)c3ccc(c(Cl)c3)Oc3cc2cc(c3O[C@@H]2O[C@H](CO)[C@@H](O)[C@H](O)[C@H]2O[C@H]2C[C@](C)(N)[C@H](O)[C@H](C)O2)Oc2ccc(cc2Cl)[C@H]1O [VANCOMYCIN] | 0.25 (≈ 0.173 µM) | 32 (≈ 22.1 µM) | 16 (≈ 11 µM) | 32 (≈ 22.1 µM) | > 32 | 32 (≈ 22.1 µM) | 16 (≈ 11 µM) | 32 (≈ 22.1 µM) | – | 8 (≈ 5.52 µM)
CC[C@H]1OC(=O)C[C@@H](O)[C@H](C)[C@@H](O[C@@H]2O[C@H](C)[C@@H](O)[C@H](N(C)C)[C@H]2O)[C@@H](CCN(Cc2ccncc2)Cc2cn(-c3cnc4ccccc4c3)nn2)C[C@@H](C)C(=O)/C=C/C(C)=C/[C@@H]1CO | 0.125 (≈ 0.139 µM) | 32 (≈ 35.6 µM) | – | 32 (≈ 35.6 µM) | – | – | – | 32 (≈ 35.6 µM) | – | –
CC[C@H]1OC(=O)C[C@@H](O)[C@H](C)[C@@H](O[C@@H]2O[C@H](C)[C@@H](O)[C@H](N(C)C)[C@H]2O)[C@@H](CCN(C)Cc2cn(-c3cnc4ccccc4c3)nn2)C[C@@H](C)C(=O)/C=C/C(C)=C/[C@@H]1CN(C)C(C)C | 0.5 (≈ 0.571 µM) | 16 (≈ 18.3 µM) | – | 8 (≈ 9.13 µM) | – | – | – | 8 (≈ 9.13 µM) | – | –
CC[C@H]1OC(=O)C[C@@H](O)[C@H](C)[C@@H](O[C@@H]2O[C@H](C)[C@@H](O)[C@H](N(C)C)[C@H]2O)[C@@H](CCN(Cc2cn(-c3cnc4ccccc4c3)nn2)Cc2ccco2)C[C@@H](C)C(=O)/C=C/C(C)=C/[C@@H]1CO | 0.125 (≈ 0.141 µM) | 32 (≈ 36.1 µM) | – | 16 (≈ 18 µM) | – | – | – | 8 (≈ 9.02 µM) | – | –
CC[C@H]1OC(=O)C[C@@H](O)[C@H](C)[C@@H](O[C@@H]2O[C@H](C)[C@@H](O)[C@H](N(C)C)[C@H]2O)[C@@H](CCN(Cc2ccc(OC)cc2)Cc2cn(-c3cnc4ccccc4c3)nn2)C[C@@H](C)C(=O)/C=C/C(C)=C/[C@@H]1CN1CCCCCCC1 | 1 (≈ 0.978 µM) | 16 (≈ 15.7 µM) | – | 16 (≈ 15.7 µM) | – | – | – | 4 (≈ 3.91 µM) | – | –
CCCN(CCC)C[C@H]1/C=C(C)/C=C/C(=O)[C@H](C)C[C@H](CCN(Cc2ccc(Br)cc2)Cc2cn(-c3cnc4ccccc4c3)nn2)[C@H](O[C@@H]2O[C@H](C)[C@@H](O)[C@H](N(C)C)[C@H]2O)[C@@H](C)[C@H](O)CC(=O)O[C@@H]1CC | 1 (≈ 0.944 µM) | 8 (≈ 7.55 µM) | – | 8 (≈ 7.55 µM) | – | – | – | 8 (≈ 7.55 µM) | – | –
CCCN(CCC)C[C@H]1/C=C(C)/C=C/C(=O)[C@H](C)C[C@H](CCN(C)Cc2cn(-c3cnc4ccccc4c3)nn2)[C@H](O[C@@H]2O[C@H](C)[C@@H](O)[C@H](N(C)C)[C@H]2O)[C@@H](C)[C@H](O)CC(=O)O[C@@H]1CC | 0.25 (≈ 0.276 µM) | 8 (≈ 8.85 µM) | – | 4 (≈ 4.42 µM) | – | – | – | 4 (≈ 4.42 µM) | – | –
CC[C@H]1OC(=O)C[C@@H](O)[C@H](C)[C@@H](O[C@@H]2O[C@H](C)[C@@H](O)[C@H](N(C)C)[C@H]2O)[C@@H](CCN(Cc2ccccc2)Cc2cn(-c3cnc4ccccc4c3)nn2)C[C@@H](C)C(=O)/C=C/C(C)=C/[C@@H]1CN1CCCCCC1 | 1 (≈ 1.02 µM) | 8 (≈ 8.18 µM) | – | 4 (≈ 4.09 µM) | – | – | – | 4 (≈ 4.09 µM) | – | –
CC[C@H]1OC(=O)C[C@@H](O)[C@H](C)[C@@H](O[C@@H]2O[C@H](C)[C@@H](O)[C@H](N(C)C)[C@H]2O)[C@@H](CCN(Cc2ccc(OC)cc2)Cc2cn(-c3cnc4ccccc4c3)nn2)C[C@@H](C)C(=O)/C=C/C(C)=C/[C@@H]1CN1CC(C)CC(C)C1 (some centres not stated) | 2 (≈ 1.96 µM) | 32 (≈ 31.3 µM) | – | 16 (≈ 15.7 µM) | – | – | – | 16 (≈ 15.7 µM) | – | –
CC[C@H]1OC(=O)C[C@@H](O)[C@H](C)[C@@H](O[C@@H]2O[C@H](C)[C@@H](O)[C@H](N(C)C)[C@H]2O)[C@@H](CCN(C)Cc2cn(-c3cnc4ccccc4c3)nn2)C[C@@H](C)C(=O)/C=C/C(C)=C/[C@@H]1CN1CC(C)CC(C)C1 (some centres not stated) | 2 (≈ 2.18 µM) | 16 (≈ 17.5 µM) | – | 8 (≈ 8.73 µM) | – | – | – | 8 (≈ 8.73 µM) | – | –
CC[C@H]1OC(=O)C[C@@H](O)[C@H](C)[C@@H](O[C@@H]2O[C@H](C)[C@@H](O)[C@H](N(C)C)[C@H]2O)[C@@H](CCN(Cc2ccsc2)Cc2cn(-c3cnc4ccccc4c3)nn2)C[C@@H](C)C(=O)/C=C/C(C)=C/[C@@H]1CO | 0.25 (≈ 0.277 µM) | 32 (≈ 35.4 µM) | – | 16 (≈ 17.7 µM) | – | – | – | 16 (≈ 17.7 µM) | – | –
CC[C@H]1OC(=O)C[C@@H](O)[C@H](C)[C@@H](O[C@@H]2O[C@H](C)[C@@H](O)[C@H](N(C)C)[C@H]2O)[C@@H](CCN(Cc2ccccc2)Cc2cn(-c3cnc4ccccc4c3)nn2)C[C@@H](C)C(=O)/C=C/C(C)=C/[C@@H]1CN(C)C | 1 (≈ 1.08 µM) | 16 (≈ 17.3 µM) | – | 4 (≈ 4.33 µM) | – | – | – | 8 (≈ 8.66 µM) | – | –
CC[C@H]1OC(=O)C[C@@H](O)[C@H](C)[C@@H](O[C@@H]2O[C@H](C)[C@@H](O)[C@H](N(C)C)[C@H]2O)[C@@H](CCN(Cc2cn(-c3cnc4ccccc4c3)nn2)Cc2ccc(CO)o2)C[C@@H](C)C(=O)/C=C/C(C)=C/[C@@H]1CO | 0.5 (≈ 0.545 µM) | 32 (≈ 34.9 µM) | – | 32 (≈ 34.9 µM) | – | – | – | 32 (≈ 34.9 µM) | – | –
CC[C@H]1OC(=O)C[C@@H](O)[C@H](C)[C@@H](O[C@@H]2O[C@H](C)[C@@H](O)[C@H](N(C)C)[C@H]2O)[C@@H](CCN(Cc2ccc(C(C)C)cc2)Cc2cn(-c3cnc4ccccc4c3)nn2)C[C@@H](C)C(=O)/C=C/C(C)=C/[C@@H]1CO | 0.5 (≈ 0.532 µM) | 32 (≈ 34.1 µM) | – | 32 (≈ 34.1 µM) | – | – | – | 16 (≈ 17 µM) | – | –
CC[C@H]1OC(=O)C[C@@H](O)[C@H](C)[C@@H](O[C@@H]2O[C@H](C)[C@@H](O)[C@H](N(C)C)[C@H]2O)[C@@H](CCN(Cc2cn(-c3cnc4ccccc4c3)nn2)Cc2cncs2)C[C@@H](C)C(=O)/C=C/C(C)=C/[C@@H]1CO | 0.5 (≈ 0.553 µM) | 32 (≈ 35.4 µM) | – | 32 (≈ 35.4 µM) | – | – | – | 32 (≈ 35.4 µM) | – | –
CC[C@H]1OC(=O)C[C@@H](O)[C@H](C)[C@@H](O[C@@H]2O[C@H](C)[C@@H](O)[C@H](N(C)C)[C@H]2O)[C@@H](CCN(Cc2ccccc2)Cc2cn(-c3cnc4ccccc4c3)nn2)C[C@@H](C)C(=O)/C=C/C(C)=C/[C@@H]1CN1CCCCC1 | 1 (≈ 1.04 µM) | 8 (≈ 8.3 µM) | – | 8 (≈ 8.3 µM) | – | – | – | 8 (≈ 8.3 µM) | – | –
CC[C@H]1OC(=O)C[C@@H](O)[C@H](C)[C@@H](O[C@@H]2O[C@H](C)[C@@H](O)[C@H](N(C)C)[C@H]2O)[C@@H](CCN(Cc2ccc(C(F)(F)F)cc2)Cc2cn(-c3cnc4ccccc4c3)nn2)C[C@@H](C)C(=O)/C=C/C(C)=C/[C@@H]1CN1CCC(O)CC1 | 2 (≈ 1.91 µM) | 32 (≈ 30.5 µM) | – | 32 (≈ 30.5 µM) | – | – | – | 16 (≈ 15.3 µM) | – | –
CC[C@H]1OC(=O)C[C@@H](O)[C@H](C)[C@@H](O[C@@H]2O[C@H](C)[C@@H](O)[C@H](N(C)C)[C@H]2O)[C@@H](CCN(C)Cc2cn(-c3cnc4ccccc4c3)nn2)C[C@@H](C)C(=O)/C=C/C(C)=C/[C@@H]1CN(C)CC | 1 (≈ 1.16 µM) | 8 (≈ 9.28 µM) | – | 8 (≈ 9.28 µM) | – | – | – | 8 (≈ 9.28 µM) | – | –

— ChEMBL document CHEMBL5126592, “Design, synthesis and activity against drug-resistant bacteria evaluation of C-20, C-23 modified 5-O-mycaminosyltylonolide derivatives” (Eur J Med Chem, 2022)
